Experimental data taken from ChEMBL document CHEMBL1201862, “PubChem BioAssay data set” (2004).
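Five concentrations, 48 hours, 96-well plates. At the GI50, growth is halved.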 The source made the active and inactive calls. Cut-off read from the data, not from the text of the source: active = GI50 up to about 1.1 µM and inactive = higher.

Key:
Assay in all cases: growth of human tumour cells (NCI), 48 h
OVCAR-4 = tested on: OVCAR-4
HT-29 = tested on: HT-29
SW-620 = tested on: SW-620
KM12 = tested on: KM12
HOP-92 = tested on: HOP-92
SF-295 = tested on: SF-295
SK-OV-3 = tested on: SK-OV-3
NCI-H460 = tested on: NCI-H460
MCF7 = tested on: MCF7
Malme-3M = tested on: Malme-3M
COLO 205 = tested on: COLO 205
SN12C = tested on: SN12C
UACC-257 = tested on: UACC-257
IGROV-1 = tested on: IGROV-1
A498 = tested on: A498
MDA-MB-435 = tested on: MDA-MB-435
SK-MEL-2 = tested on: SK-MEL-2
MDA-MB-231 = tested on: MDA-MB-231
NCI-H226 = tested on: NCI-H226
HOP-62 = tested on: HOP-62
U-251 = tested on: U-251
UACC-62 = tested on: UACC-62
Hs-578T = tested on: Hs-578T
SK-MEL-5 = tested on: SK-MEL-5
CCRF-CEM = tested on: CCRF-CEM
BT-549 = tested on: BT-549
RXF 393 = tested on: RXF 393
HCT-116 = tested on: HCT-116
SF-539 = tested on: SF-539
OVCAR-3 = tested on: OVCAR-3
HL-60 = tested on: HL-60
M14 = tested on: M14
NCI/ADR-RES = tested on: NCI/ADR-RES
OVCAR-5 = tested on: OVCAR-5
SNB-19 = tested on: SNB-19
CAKI-1 = tested on: CAKI-1
SR = tested on: SR
RPMI-8226 = tested on: RPMI-8226
NCI-H23 = tested on: NCI-H23
MDA-N = tested on: MDA-N
SNB-75 = tested on: SNB-75
PC-3 = tested on: PC-3
ACHN = tested on: ACHN
NCI-H522 = tested on: NCI-H522
SK-MEL-28 = tested on: SK-MEL-28
EKVX = tested on: EKVX
A549 = tested on: A549
UO-31 = tested on: UO-31
MOLT-4 = tested on: MOLT-4
HCC 2998 = tested on: HCC 2998
HCT-15 = tested on: HCT-15
786-0 = tested on: 786-0
OVCAR-8 = tested on: OVCAR-8
T47D = tested on: T47D
LOX IMVI = tested on: LOX IMVI
K562 = tested on: K562
SF-268 = tested on: SF-268
TK-10 = tested on: TK-10
DU-145 = tested on: DU-145

SMILES: N#C[C@H](c1ccccn1)c1nc2ccccc2nc1Cl
- GI50 (OVCAR-4): > 100 µM (inactive)
- GI50 (HT-29): > 100 µM (inactive)
- GI50 (SW-620): > 100 µM (inactive)
- GI50 (KM12): 36.5 µM (inactive)
- GI50 (HOP-92): > 100 µM (inactive)
- GI50 (SF-295): > 100 µM (inactive)
- GI50 (SK-OV-3): > 100 µM (inactive)
- GI50 (NCI-H460): > 100 µM (inactive)
- GI50 (MCF7): > 100 µM (inactive)
- GI50 (Malme-3M): > 100 µM (inactive)
- GI50 (COLO 205): > 100 µM (inactive)
- GI50 (SN12C): > 100 µM (inactive)
- GI50 (UACC-257): > 100 µM (inactive)
- GI50 (IGROV-1): > 100 µM (inactive)
- GI50 (A498): > 100 µM (inactive)
- GI50 (MDA-MB-435): > 100 µM (inactive)
- GI50 (SK-MEL-2): > 100 µM (inactive)
- GI50 (MDA-MB-231): > 100 µM (inactive)
- GI50 (NCI-H226): > 100 µM (inactive)
- GI50 (HOP-62): > 100 µM (inactive)
- GI50 (U-251): > 100 µM (inactive)
- GI50 (UACC-62): > 100 µM (inactive)
- GI50 (Hs-578T): > 100 µM (inactive)
- GI50 (SK-MEL-5): > 100 µM (inactive)
- GI50 (CCRF-CEM): > 100 µM (inactive)
- GI50 (BT-549): > 100 µM (inactive)
- GI50 (RXF 393): > 100 µM (inactive)
- GI50 (HCT-116): > 100 µM (inactive)
- GI50 (SF-539): > 100 µM (inactive)
- GI50 (OVCAR-3): > 100 µM (inactive)
- GI50 (HL-60): 74.6 µM (inactive)
- GI50 (M14): > 100 µM (inactive)
- GI50 (NCI/ADR-RES): > 100 µM (inactive)
- GI50 (OVCAR-5): > 100 µM (inactive)
- GI50 (SNB-19): > 100 µM (inactive)
- GI50 (CAKI-1): > 100 µM (inactive)
- GI50 (SR): > 100 µM (inactive)
- GI50 (RPMI-8226): > 100 µM (inactive)
- GI50 (NCI-H23): > 100 µM (inactive)
- GI50 (MDA-N): > 100 µM (inactive)
- GI50 (SNB-75): > 100 µM (inactive)
- GI50 (PC-3): > 100 µM (inactive)
- GI50 (ACHN): > 100 µM (inactive)
- GI50 (NCI-H522): > 100 µM (inactive)
- GI50 (SK-MEL-28): > 100 µM (inactive)
- GI50 (EKVX): > 100 µM (inactive)
- GI50 (A549): > 100 µM (inactive)
- GI50 (UO-31): > 100 µM (inactive)
- GI50 (MOLT-4): > 100 µM (inactive)
- GI50 (HCC 2998): > 100 µM (inactive)
- GI50 (HCT-15): > 100 µM
- GI50 (786-0): > 100 µM (inactive)
- GI50 (OVCAR-8): > 100 µM (inactive)
- GI50 (T47D): > 100 µM (inactive)

SMILES: CCOc1ccccc1NC(=O)C(=O)C(/C(=N/N)C(=O)OC)c1nc2ccc([N+](=O)[O-])cc2nc1O (centres undefined)
- GI50 (OVCAR-4): > 100 µM (inactive)
- GI50 (HT-29): > 100 µM (inactive)
- GI50 (LOX IMVI): > 100 µM (inactive)
- GI50 (SW-620): > 100 µM (inactive)
- GI50 (KM12): > 100 µM (inactive)
- GI50 (HOP-92): 46 µM (inactive)
- GI50 (K562): > 100 µM (inactive)
- GI50 (SF-295): > 100 µM (inactive)
- GI50 (SK-OV-3): > 100 µM (inactive)
- GI50 (NCI-H460): > 100 µM (inactive)
- GI50 (MCF7): > 100 µM (inactive)
- GI50 (Malme-3M): > 100 µM (inactive)
- GI50 (SN12C): > 100 µM (inactive)
- GI50 (UACC-257): > 100 µM (inactive)
- GI50 (IGROV-1): 28.5 µM (inactive)
- GI50 (A498): > 100 µM (inactive)
- GI50 (MDA-MB-435): > 100 µM (inactive)
- GI50 (SK-MEL-2): > 100 µM (inactive)
- GI50 (MDA-MB-231): > 100 µM (inactive)
- GI50 (SF-268): > 100 µM (inactive)
- GI50 (NCI-H226): > 100 µM (inactive)
- GI50 (HOP-62): > 100 µM (inactive)
- GI50 (U-251): > 100 µM (inactive)
- GI50 (UACC-62): > 100 µM (inactive)
- GI50 (Hs-578T): > 100 µM (inactive)
- GI50 (SK-MEL-5): > 100 µM (inactive)
- GI50 (CCRF-CEM): > 100 µM (inactive)
- GI50 (BT-549): > 100 µM (inactive)
- GI50 (RXF 393): > 100 µM (inactive)
- GI50 (HCT-116): > 100 µM (inactive)
- GI50 (SF-539): > 100 µM (inactive)
- GI50 (OVCAR-3): > 100 µM (inactive)
- GI50 (HL-60): > 100 µM (inactive)
- GI50 (TK-10): > 100 µM (inactive)
- GI50 (M14): > 100 µM (inactive)
- GI50 (NCI/ADR-RES): > 100 µM (inactive)
- GI50 (OVCAR-5): > 100 µM (inactive)
- GI50 (CAKI-1): > 100 µM (inactive)
- GI50 (SR): > 100 µM (inactive)
- GI50 (RPMI-8226): > 100 µM (inactive)
- GI50 (MDA-N): > 100 µM (inactive)
- GI50 (SNB-75): 71.4 µM (inactive)
- GI50 (PC-3): > 100 µM (inactive)
- GI50 (NCI-H522): 58.3 µM (inactive)
- GI50 (SK-MEL-28): > 100 µM (inactive)
- GI50 (EKVX): 97.5 µM (inactive)
- GI50 (A549): > 100 µM (inactive)
- GI50 (MOLT-4): 59.8 µM (inactive)
- GI50 (HCC 2998): > 100 µM (inactive)
- GI50 (HCT-15): > 100 µM
- GI50 (786-0): > 100 µM (inactive)
- GI50 (OVCAR-8): > 100 µM (inactive)
- GI50 (T47D): > 100 µM (inactive)

SMILES: CCC(CN(C)C)C(=O)c1ccco1 (centres undefined)
- GI50 (OVCAR-4): > 100 µM (inactive)
- GI50 (HT-29): > 100 µM (inactive)
- GI50 (LOX IMVI): > 100 µM (inactive)
- GI50 (SW-620): > 100 µM (inactive)
- GI50 (KM12): > 100 µM (inactive)
- GI50 (HOP-92): 23 µM (inactive)
- GI50 (K562): > 100 µM (inactive)
- GI50 (SF-295): > 100 µM (inactive)
- GI50 (SK-OV-3): > 100 µM (inactive)
- GI50 (NCI-H460): > 100 µM (inactive)
- GI50 (MCF7): 47.9 µM (inactive)
- GI50 (Malme-3M): 41.4 µM (inactive)
- GI50 (DU-145): > 100 µM (inactive)
- GI50 (SN12C): > 100 µM (inactive)
- GI50 (UACC-257): > 100 µM (inactive)
- GI50 (IGROV-1): > 100 µM (inactive)
- GI50 (A498): > 100 µM (inactive)
- GI50 (MDA-MB-435): > 100 µM (inactive)
- GI50 (SK-MEL-2): > 100 µM (inactive)
- GI50 (MDA-MB-231): > 100 µM (inactive)
- GI50 (SF-268): 54.8 µM (inactive)
- GI50 (HOP-62): > 100 µM (inactive)
- GI50 (U-251): > 100 µM (inactive)
- GI50 (UACC-62): > 100 µM (inactive)
- GI50 (Hs-578T): 98.6 µM (inactive)
- GI50 (BT-549): > 100 µM (inactive)
- GI50 (RXF 393): > 100 µM (inactive)
- GI50 (HCT-116): > 100 µM (inactive)
- GI50 (OVCAR-3): > 100 µM (inactive)
- GI50 (TK-10): > 100 µM (inactive)
- GI50 (M14): > 100 µM (inactive)
- GI50 (NCI/ADR-RES): > 100 µM (inactive)
- GI50 (OVCAR-5): > 100 µM (inactive)
- GI50 (SNB-19): > 100 µM (inactive)
- GI50 (CAKI-1): > 100 µM (inactive)
- GI50 (SR): > 100 µM (inactive)
- GI50 (RPMI-8226): 68.5 µM (inactive)
- GI50 (NCI-H23): > 100 µM (inactive)
- GI50 (SNB-75): > 100 µM (inactive)
- GI50 (PC-3): > 100 µM (inactive)
- GI50 (ACHN): > 100 µM (inactive)
- GI50 (NCI-H522): 14.5 µM (inactive)
- GI50 (SK-MEL-28): > 100 µM (inactive)
- GI50 (EKVX): > 100 µM (inactive)
- GI50 (A549): > 100 µM (inactive)
- GI50 (UO-31): > 100 µM (inactive)
- GI50 (MOLT-4): 22.3 µM (inactive)
- GI50 (HCC 2998): > 100 µM (inactive)
- GI50 (HCT-15): > 100 µM
- GI50 (786-0): > 100 µM (inactive)
- GI50 (OVCAR-8): > 100 µM (inactive)
- GI50 (T47D): > 100 µM (inactive)
